“And” between values parts separate entries of the source, which are not always exact repeats. Equal values may be shown once.
Assays:
Assay type in all cases: cell-based, Mycosphaerella graminicola
[1] = system: wild type IPO323 M. graminicola strain; conditions: minimal concentration to fully inhibit growth of WT IPO323, AE agar, 10^7 cells, 2 weeks at 20°C in the dark
Text: (§1) Selection plates were produced after adding 1% of a 100× DMSO solution of the active ingredients to pre-melted AE-agar.

[2] = system: M. graminicola isolate IPO323; assay: UV mutagenesis and selection of resistant colonies on carboxamide amended AE agar
Experimental: as §1
Cells were harvested from 4 days old V8 agar plates and conidial cells were suspended in liquid AE. 10^7 cells were spread onto carboxamide amended AE agar plates and mutagenized using UV Stratalinker 2400 (Stratagene) with 75 mJ cm^−2 or 50 mJ cm^−2. […] Selection plates were incubated in the dark at 20°C for 14 days. Visible colonies were picked from the primary selection plate and re-grown on fresh selection media for 2 additional weeks under the same conditions.

[3] = system: M. graminicola strain Flu21 (SDHC_A84I); assay: in vivo sensitivity, liquid culture growth (AE media); conditions: C_A84I, ratio IC50mutant/IC50WT
Experimental: (§2) To explore the sensitivity profiles conferred by amino acid substitutions at the cellular and mitochondrial level, we determined sensitivity towards 4 different compounds for 26 of the identified substitution types both in vivo using liquid culture growth (AE media) and in vitro using purified mitochondria and the succinate: Q0/DCPIP activity test (Table 3). […] Resistance factors (RF) were determined as the ratio IC50mutant/IC50WT. […] Qp site mutations are well known to influence SDH enzyme activity and stability upon catalysis, [13], [38], [41].
(§3) Conidial cells were collected from 4 day old V8 agar plates (cultured at 18°C in the dark) using liquid AE and a cell spreader. Cell density was determined and cells re-suspended to a concentration of 5×10^5 cells ml^−1 in AE media. Sterile 96 wells microtiter plates with lids (Costar) were inoculated with 198 µl of this cell suspension (10^5 cells per well) and 2 µl of inhibitor (100× in DMSO). Final inhibitor concentrations were between 0.95 nM and 1 mM with uniform 4× dilution factor steps (11 inhibitor concentrations+1 DMSO control). Plates were incubated for 6 days at 19°C in the dark before cells were re-suspended and measured for growth (OD600 nm). IC50 values were determined by non linear curve fitting on the basis of measured OD values versus log inhibitor concentrations (GraphPad Prism 5.0 software).

[4] = system: M. graminicola strain Izm7 (SDHC_N86K); assay: as above; conditions: C_N86K, ratio IC50mutant/IC50WT
Experimental: as §2, §3

[5] = system: M. graminicola strain Cbx12 (SDHC_L85P); assay: as above; conditions: C_L85P, ratio IC50mutant/IC50WT
Experimental: as §2, §3

[6] = system: M. graminicola strain Cbx29 (SDHB_H267L); assay: as above; conditions: B_H267L, ratio IC50mutant/IC50WT
Experimental: as §2, §3

[7] = system: M. graminicola strain Cbx22 (SDHD_D129E); assay: as above; conditions: D_D129E, ratio IC50mutant/IC50WT
Experimental: as §2, §3

[8] = system: M. graminicola strain Cbx101 (SDHD_D129S); assay: as above; conditions: D_D129S, ratio IC50mutant/IC50WT
Experimental: as §2, §3

[9] = system: M. graminicola strain Bos64 (SDHC_T79I); assay: as above; conditions: C_T79I, ratio IC50mutant/IC50WT
Experimental: as §2, §3

[10] = system: M. graminicola strain Flu75 (SDHB_P220L); assay: as above; conditions: B_P220L, ratio IC50mutant/IC50WT
Experimental: as §2, §3

[11] = system: M. graminicola strain Flu1 (SDHC_S83G); assay: as above; conditions: C_S83G, ratio IC50mutant/IC50WT
Experimental: as §2, §3

[12] = system: M. graminicola strain Izm1 (SDHC_H152R); assay: as above; conditions: C_H152R, ratio IC50mutant/IC50WT
Experimental: as §2, §3

[13] = system: M. graminicola strain Flu29 (SDHD_D129T); assay: as above; conditions: D_D129T, ratio IC50mutant/IC50WT
Experimental: as §2, §3

[14] = system: M. graminicola strain Cbx56 (SDHB_R265P); assay: as above; conditions: B_R265P, ratio IC50mutant/IC50WT
Experimental: as §2, §3

[15] = system: M. graminicola strain Flu9 (SDHC_R87C); assay: as above; conditions: C_R87C, ratio IC50mutant/IC50WT
Experimental: as §2, §3

[16] = system: M. graminicola strain Cbx96 (SDHB_H267N); assay: as above; conditions: B_H267N, ratio IC50mutant/IC50WT
Experimental: as §2, §3

[17] = system: M. graminicola strain Cbx67 (SDHD_D129G); assay: as above; conditions: D_D129G, ratio IC50mutant/IC50WT
Experimental: as §2, §3

[18] = system: M. graminicola strain Flu7 (SDHB_N225I); assay: as above; conditions: B_N225I, ratio IC50mutant/IC50WT
Experimental: as §2, §3

[19] = system: M. graminicola strain Ol50 (SDHC_V88D); assay: as above; conditions: C_V88D, ratio IC50mutant/IC50WT
Experimental: as §2, §3

[20] = system: M. graminicola strain Flu41 (SDHB_S218F); assay: as above; conditions: B_S218F, ratio IC50mutant/IC50WT
Experimental: as §2, §3

[21] = system: M. graminicola strain Flu110 (SDHB_P220T); assay: as above; conditions: B_P220T, ratio IC50mutant/IC50WT
Experimental: as §2, §3

[22] = system: M. graminicola strain Bos59 (SDHB_H267Q); assay: as above; conditions: B_H267Q, ratio IC50mutant/IC50WT
Experimental: as §2, §3

[23] = system: M. graminicola strain Flu4 (SDHC_A84V); assay: as above; conditions: C_A84V, ratio IC50mutant/IC50WT
Experimental: as §2, §3

SMILES: CC(C)C1C2CCC1c1c(NC(=O)c3cn(C)nc3C(F)F)cccc12 (centres unmarked) [Isopyrazam]
- Minimal selective concentration (MSC) [1]: Isopyrazam 3 µM (MSC)
- Frequency (of resistance development) ([2]; selection at 5× MSC, UV treatment 50 mJ cm^−2): 1.4E-07
- Frequency (of resistance development) ([2]; selection at 5× MSC, UV treatment 75 mJ cm^−2): 1.7E-07
- Frequency (of resistance development) ([2]; selection at MSC, UV treatment 50 mJ cm^−2): 3.2E-07
- Frequency (of resistance development) ([2]; selection at MSC, UV treatment 75 mJ cm^−2): 4.1E-07
- Resistance Factors (RFs) in vivo [3]: 8.8
- Resistance Factors (RFs) in vivo [4]: 464.4
- Resistance Factors (RFs) in vivo [5]: 10.0
- Resistance Factors (RFs) in vivo [6]: 152.2
- Resistance Factors (RFs) in vivo [7]: 6.8
- Resistance Factors (RFs) in vivo [8]: 10.8
- Resistance Factors (RFs) in vivo [9]: 15.8
- Resistance Factors (RFs) in vivo [10]: 4.8
- Resistance Factors (RFs) in vivo [11]: 61.2
- Resistance Factors (RFs) in vivo [12]: 133.9
- Resistance Factors (RFs) in vivo [13]: 33 and 33.5
- Resistance Factors (RFs) in vivo [14]: 7.6
- Resistance Factors (RFs) in vivo [15]: 3.7
- Resistance Factors (RFs) in vivo [16]: 4.5
- Resistance Factors (RFs) in vivo [17]: 22.9
- Resistance Factors (RFs) in vivo [18]: 15.0
- Resistance Factors (RFs) in vivo [19]: 36.5
- Resistance Factors (RFs) in vivo [20]: 15.0
- Resistance Factors (RFs) in vivo [21]: 3.8
- Resistance Factors (RFs) in vivo [22]: 12.5
- Resistance Factors (RFs) in vivo [23]: 3.5

From publication PMC3334918, “Mutagenesis and Functional Studies with Succinate Dehydrogenase Inhibitors in the Wheat Pathogen Mycosphaerella graminicola” (PLoS ONE, 2012)
